Measured values from patent US8871762B2, “Plant disease controlling composition and method for controlling plant disease” (Sumitomo Chemical Company, Limited, priority 2010, dated 2014).
Like-named read-outs stand apart in the source and are kept apart here.

Tested on: gray mold fungus (Botrytis cinerea)
Assay: Cucumber leaf disk preventive test against gray mold fungus
Assay type: in vivo
Conditions: for pest or weed control at 0.5 ppm / pest or weed control at 5 ppm: Botrytis cinerea, foliar, 96 h, read-out: preventive value (%)
Experimental: True leaf of cucumber is punched out with cork borer to 13 mm in diameter to prepare a leaf disk. In 24 well microwell plate that is dispensed with 1 ml 0.8% water agar, the leaf disk is placed such that the upper side of the leaf is in an upward direction. Thereto is added 20 micro liter a testing solution prepared by mixing a dimethyl sulfoxide solution of the present compound (racemate) and a dimethyl sulfoxide solution of isopyrazam, boscalid or penthiopyrad to a predetermined concentration to treat the leaf disk.
After confirming that the testing medical solution is dried, conidium of gray mold fungus (Botrytis cinerea) is suspended into potato dextrose broth (DIFCO) in a density of about 10^5 conidium/mL and is then subjected to a spray inoculation. After leaving to stand the leaf disk in a growth chamber set up at 15° C. for four days, an onset area on the leaf is measured and then calculated an onset area rate (hereinafter, referred to as an onset area rate of treated group).
The same operation is carried out with 20 micro liter water instead of 20 micro liter a testing medicine solution to calculate an onset area rate (hereinafter, referred to an onset area rate of non-treated group).
A preventive value is calculated from the above onset area rate of treated group and the onset area rate of non-treated group by the following equation: Preventive value(%)=100×(A−B)/A
A: an onset area rate of treated group
B: an onset area rate of non-treated group […]
For comparison, the same operations as described in Test Example 1 are carried out with the exception that the testing medicine solution is substituted with a predetermined concentration of each dimethyl sulfoxide solution of isopyrazam, boscalid or penthiopyrad, so as to calculate respective preventive values.

[1] = carboxamide compound alone, 0.5 ppm, cucumber leaf disk, 15° C., four days
[2] = carboxamide compound alone, 5.0 ppm, cucumber leaf disk, 15° C., four days

SMILES	preventive value (%) [1]	preventive value (%) [2]	pest or weed control at 0.5 ppm [1]	pest or weed control at 5 ppm [2]	also measured
COC(=O)[C@@H](C)N(C(=O)Cc1ccccc1)c1c(C)cccc1C [benalaxyl-M]	10%	15%			
O=C(Nc1ccccc1-c1ccc(Cl)cc1)c1cccnc1Cl [boscalid]			49%	56%	
C[C@@H](NC(=O)C(C#N)C(C)(C)C)c1ccc(Cl)cc1Cl (stereo partly drawn) [diclocymet]					pest or weed control at 0.5 ppm: 10%; pest or weed control at 5 ppm: 15%
COc1ccc(C(=CC(=O)N2CCOCC2)c2ccc(Cl)cc2)cc1OC [dimethomorph]			10%	15%	
CC1(C(=O)Nc2ccc(O)c(Cl)c2Cl)CCCCC1 [fenhexamid]			20%	57%	
O=C(NCCc1ncc(C(F)(F)F)cc1Cl)c1ccccc1C(F)(F)F [fluopyram]			35%	45%	
Cc1nn(C)c(Cl)c1C(=O)Nc1cccc2c1C(C)OC2(C)C (stereo not drawn) [furametpyr]	15%	20%			
CC(C)C1C2CCC1c1c(NC(=O)c3cn(C)nc3C(F)F)cccc12 (stereo not drawn) [isopyrazam]	20%	40%			
N#Cc1ccccc1NC(=O)c1snc(Cl)c1Cl [isotianil]	10%	25%			
COCC(=O)N(c1c(C)cccc1C)N1CCOC1=O [oxadixyl]					pest or weed control at 0.5 ppm: 10%; pest or weed control at 5 ppm: 15%
O=C(Nc1ccccc1)N(Cc1ccc(Cl)cc1)C1CCCC1 [pencycuron]			10%	15%	
CC(C)CC(C)c1sccc1NC(=O)c1cn(C)nc1C(F)(F)F (stereo not drawn) [penthiopyrad]			39%	45%	
